Experimental data published in patent publication US20250195672A1, “DENDRIMER COMPOSITIONS FOR TARGETED DELIVERY OF THERAPEUTICS TO NEURONS” (priority 2022, published 2025).
Entries after “also recorded” stand apart in the source; their conditions may differ.

These compounds were tested on YFP-expressing cortical neurons (assay: GD2-Cy5 uptake in ex vivo cortical brain sections: neuronal activity and glucose transporter blockade). Settings: 30 minutes pre-treatment in Mg2+ free ACSF: cytochalasin B 5 μM, glutor 10 μM, phlorizin 10 μM, GD2-Cy5 10 μg/ml.
Type: cell-based, mouse
Procedure: FIG. 9A is scheme of the experiment in which 300 μm cortical brain sections were pre-treated for 30 minutes with control ACSF (Mg2+ free, increases neuronal firing) or ACSF containing Mg2+/NMDG (suppressed neuronal activity) or control ACSF with either cytochalasin B (5 μM) or glutor ([…]). After pre-treatment, brain sections were incubated with GD2-Cy5 (10 μg/ml) for 30 minutes followed by 10% formalin fixation and confocal imaging.
300 μm cortical brain sections were pre-treated for 30 minutes with Mg2+ free artificial cerebrospinal fluid (ACSF) (increases neuronal firing) or ACSF containing Mg2+/NMDG (suppressed neuronal activity) or Mg2+ free ACSF with cytochalasin B (5 μM) or glutor (10 μM) or phlorizin (10 μM). After pre-treatment, brain sections were incubated with GD2-Cy5 (10 μg/ml) for 30 minutes followed by formalin fixation and confocal imaging. Mean fluorescence intensities for GD-Cy5 were evaluated in YFP-expressing cortical neurons. Confocal images of fixed sections showing DAPI (nucleus), YFP (neurons) and GD2-Cy5 with different treatments were taken and analyzed.
CP rabbit kits or Thy1-YFP mice were deeply anesthetized with isoflurane and decapitated. Brains were removed and transferred to oxygenated (95% O2/5% CO2), ice-cold N-Methyl-D-glucamin (NMDG)-based buffer (Buffer1, in mM: 92 NMDG, 2.5 KCl, 10 MgSO4, 0.5 CaCl2, 1.2 NaH2PO4, 30 NaHCO3, 25 glucose, 20 HEPES, 5 sodium ascorbate, 3 sodium pyruvate, 2 thiourea; pH 7.4). Coronal brain slices ([…]) were then obtained using a vibratome (VT1200, Leica). Slices were first incubated in the NMDG-based solution at 34° C. for 10 minutes, then transferred and maintained in the same solution for an hour at room temperature before starting subsequent experiment. Dendrimer-Cy5 was added in 5 ml of Buffer2 (in mM: 125 NaCl, 2.5 KCl, 1 MgCl2, 2 CaCl2, 1.25 NaH2PO4, 26 NaHCO3, 20 glucose; pH 7.4) containing brain slices and incubated for 30 min while oxygenation at room temperature. […]

SMILES | Effect of transporter blocker pre-treatment on GD2 uptake by neurons
C=C1[C@@H](C)[C@H]2[C@H](Cc3ccccc3)NC(=O)[C@]23OC(=O)/C=C/[C@H](O)CCC[C@@H](C)C/C=C/[C@H]3[C@@H]1O [cytochalasin B] | diminished GD2 uptake; also recorded: significantly decreased
O=C(CCc1ccc(O)cc1)c1c(O)cc(O)cc1O[C@@H]1O[C@H](CO)[C@@H](O)[C@H](O)[C@H]1O [Phlorizin] | diminished GD2 uptake
C[C@@]1(C(=O)NCc2cccnc2)Cn2nc(-c3ccccc3)cc2C(=O)N1Cc1ccc(N2CCOCC2)cc1 [glutor] | diminished GD2 uptake; also recorded: significantly decreased
